Reference: the supplement of paper PMC10307832

Assays:
Test in all cases: relative viability (nuclei count vs DMSO), 5 days (fraction); higher = more cells survive
AGI-6780 = compound: O=C(Nc1cccc(C(F)(F)F)c1)Nc1cc(S(=O)(=O)NC2CC2)ccc1-c1ccsc1 [AGI-6780]
How it was run: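 Lung cancer cell lines were seeded into 1536-well plates, kept overnight at 37 °C and pinned with five library-drug doses (not always all listed) spaced by √10. After 5 days, nuclei were Hoechst-stained, imaged at 4× and counted with MetaXpress. Viability is treated-well nuclei over vehicle-well nuclei, taken as a median across plates. Plates needed control CV below 25% and at least one doubling.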

AGI-6780 + Vorinostat = compound: O=C(Nc1cccc(C(F)(F)F)c1)Nc1cc(S(=O)(=O)NC2CC2)ccc1-c1ccsc1 [AGI-6780] + O=C(CCCCCCC(=O)Nc1ccccc1)NO [Vorinostat] (partner 1 µM)
How it was run: (§1)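 Lung cancer cell lines in 1536-well plates were dosed by pin tool the day after seeding, either with one drug alone or with a fixed anchor-drug dose plus five library-drug doses (not always all listed) in √10 steps. After 5 days, cells were fixed and their nuclei stained in one step (final 0.05% Triton X-100, 1% formaldehyde, 1 ug/ml Hoechst), then counted on 4× images. Relative viability is the nuclei count in treated wells divided by that in vehicle wells. Values are medians of duplicate plates.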

AGI-6780 + Palbociclib = compound: O=C(Nc1cccc(C(F)(F)F)c1)Nc1cc(S(=O)(=O)NC2CC2)ccc1-c1ccsc1 [AGI-6780] + CC(=O)c1c(C)c2cnc(Nc3ccc(N4CCNCC4)cn3)nc2n(C2CCCC2)c1=O [Palbociclib] (partner 0.5 µM)
How it was run: as §1

AGI-6780 + Trametinib = compound: O=C(Nc1cccc(C(F)(F)F)c1)Nc1cc(S(=O)(=O)NC2CC2)ccc1-c1ccsc1 [AGI-6780] + CC(=O)Nc1cccc(-n2c(=O)n(C3CC3)c(=O)c3c(Nc4ccc(I)cc4F)n(C)c(=O)c(C)c32)c1 [Trametinib] (partner 0.02 µM)
How it was run: as §1

AGI-6780 + Tozasertib = compound: O=C(Nc1cccc(C(F)(F)F)c1)Nc1cc(S(=O)(=O)NC2CC2)ccc1-c1ccsc1 [AGI-6780] + Cc1cc(Nc2cc(N3CCN(C)CC3)nc(Sc3ccc(NC(=O)C4CC4)cc3)n2)n[nH]1 [Tozasertib] (partner 0.1 µM)
How it was run: as §1

AGI-6780 + AZD7762 = compound: O=C(Nc1cccc(C(F)(F)F)c1)Nc1cc(S(=O)(=O)NC2CC2)ccc1-c1ccsc1 [AGI-6780] + NC(=O)Nc1cc(-c2cccc(F)c2)sc1C(=O)N[C@H]1CCCNC1 [AZD7762] (partner 0.2 µM)
How it was run: as §1

AGI-6780 + Luminespib = compound: O=C(Nc1cccc(C(F)(F)F)c1)Nc1cc(S(=O)(=O)NC2CC2)ccc1-c1ccsc1 [AGI-6780] + CCNC(=O)c1noc(-c2cc(C(C)C)c(O)cc2O)c1-c1ccc(CN2CCOCC2)cc1 [Luminespib] (partner 0.01 µM)
How it was run: as §1

AGI-6780 + OSI-027 = compound: O=C(Nc1cccc(C(F)(F)F)c1)Nc1cc(S(=O)(=O)NC2CC2)ccc1-c1ccsc1 [AGI-6780] + COc1cccc2cc(-c3nc([C@H]4CC[C@H](C(=O)O)CC4)n4ncnc(N)c34)[nH]c12 [OSI-027] (partner 0.5 µM)
How it was run: as §1

AGI-6780 + Olaparib = compound: O=C(Nc1cccc(C(F)(F)F)c1)Nc1cc(S(=O)(=O)NC2CC2)ccc1-c1ccsc1 [AGI-6780] + O=C(c1cc(Cc2n[nH]c(=O)c3ccccc23)ccc1F)N1CCN(C(=O)C2CC2)CC1 [Olaparib] (partner 8 µM)
How it was run: as §1

AGI-6780 + Pemetrexed = compound: O=C(Nc1cccc(C(F)(F)F)c1)Nc1cc(S(=O)(=O)NC2CC2)ccc1-c1ccsc1 [AGI-6780] + Nc1nc2[nH]cc(CCc3ccc(C(=O)N[C@@H](CCC(=O)O)C(=O)O)cc3)c2c(=O)[nH]1 [Pemetrexed] (partner 0.2 µM)
How it was run: as §1

AGI-6780 + Foretinib = compound: O=C(Nc1cccc(C(F)(F)F)c1)Nc1cc(S(=O)(=O)NC2CC2)ccc1-c1ccsc1 [AGI-6780] + COc1cc2c(Oc3ccc(NC(=O)C4(C(=O)Nc5ccc(F)cc5)CC4)cc3F)ccnc2cc1OCCCN1CCOCC1 [Foretinib] (partner 0.25 µM)
How it was run: as §1

AGI-6780 + Phenformin = compound: O=C(Nc1cccc(C(F)(F)F)c1)Nc1cc(S(=O)(=O)NC2CC2)ccc1-c1ccsc1 [AGI-6780] + N=C(N)NC(=N)NCCc1ccccc1 [Phenformin] (partner 250 µM)
How it was run: as §1

AGI-6780 + Decitabine = compound: O=C(Nc1cccc(C(F)(F)F)c1)Nc1cc(S(=O)(=O)NC2CC2)ccc1-c1ccsc1 [AGI-6780] + Nc1ncn([C@H]2C[C@H](O)[C@@H](CO)O2)c(=O)n1 [Decitabine] (partner 2 µM)
How it was run: as §1

AGI-6780 + Dasatinib = compound: O=C(Nc1cccc(C(F)(F)F)c1)Nc1cc(S(=O)(=O)NC2CC2)ccc1-c1ccsc1 [AGI-6780] + Cc1nc(Nc2ncc(C(=O)Nc3c(C)cccc3Cl)s2)cc(N2CCN(CCO)CC2)n1 [Dasatinib] (partner 0.075 µM)
How it was run: as §1

Cell Line: NCI-H2342
- relative viability (AGI-6780; 0.08 µM): 0.984
- relative viability (AGI-6780; 0.253 µM): 1.01
- relative viability (AGI-6780; 0.8 µM): 1.15
- relative viability (AGI-6780; 2.53 µM): 0.848
- relative viability (AGI-6780; 8 µM): 1.2
- relative viability (AGI-6780 + Vorinostat; first compound 0.08 µM): 0.749
- relative viability (AGI-6780 + Vorinostat; first compound 0.253 µM): 0.824
- relative viability (AGI-6780 + Vorinostat; first compound 0.8 µM): 0.874
- relative viability (AGI-6780 + Vorinostat; first compound 2.53 µM): 0.663
- relative viability (AGI-6780 + Vorinostat; first compound 8 µM): 1.1
- relative viability (AGI-6780 + Palbociclib; first compound 0.08 µM): 0.506
- relative viability (AGI-6780 + Palbociclib; first compound 0.253 µM): 0.504
- relative viability (AGI-6780 + Palbociclib; first compound 0.8 µM): 0.509
- relative viability (AGI-6780 + Palbociclib; first compound 2.53 µM): 0.478
- relative viability (AGI-6780 + Palbociclib; first compound 8 µM): 0.548
- relative viability (AGI-6780 + Trametinib; first compound 0.08 µM): 0.866
- relative viability (AGI-6780 + Trametinib; first compound 0.253 µM): 0.72
- relative viability (AGI-6780 + Trametinib; first compound 0.8 µM): 0.772
- relative viability (AGI-6780 + Trametinib; first compound 2.53 µM): 0.723
- relative viability (AGI-6780 + Trametinib; first compound 8 µM): 0.981
- relative viability (AGI-6780 + Tozasertib; first compound 0.08 µM): 0.56
- relative viability (AGI-6780 + Tozasertib; first compound 0.253 µM): 0.52
- relative viability (AGI-6780 + Tozasertib; first compound 0.8 µM): 0.593
- relative viability (AGI-6780 + Tozasertib; first compound 2.53 µM): 0.43
- relative viability (AGI-6780 + Tozasertib; first compound 8 µM): 0.597
- relative viability (AGI-6780 + AZD7762; first compound 0.08 µM): 0.47
- relative viability (AGI-6780 + AZD7762; first compound 0.253 µM): 0.667
- relative viability (AGI-6780 + AZD7762; first compound 0.8 µM): 0.612
- relative viability (AGI-6780 + AZD7762; first compound 2.53 µM): 0.499
- relative viability (AGI-6780 + AZD7762; first compound 8 µM): 0.733
- relative viability (AGI-6780 + Luminespib; first compound 0.08 µM): 0.604
- relative viability (AGI-6780 + Luminespib; first compound 0.253 µM): 0.68
- relative viability (AGI-6780 + Luminespib; first compound 0.8 µM): 0.679
- relative viability (AGI-6780 + Luminespib; first compound 2.53 µM): 0.552
- relative viability (AGI-6780 + Luminespib; first compound 8 µM): 1.09
- relative viability (AGI-6780 + OSI-027; first compound 0.08 µM): 0.63
- relative viability (AGI-6780 + OSI-027; first compound 0.253 µM): 0.721
- relative viability (AGI-6780 + OSI-027; first compound 0.8 µM): 0.58
- relative viability (AGI-6780 + OSI-027; first compound 2.53 µM): 0.57
- relative viability (AGI-6780 + OSI-027; first compound 8 µM): 0.662
- relative viability (AGI-6780 + Olaparib; first compound 0.08 µM): 0.407
- relative viability (AGI-6780 + Olaparib; first compound 0.253 µM): 0.437
- relative viability (AGI-6780 + Olaparib; first compound 0.8 µM): 0.504
- relative viability (AGI-6780 + Olaparib; first compound 2.53 µM): 0.497
- relative viability (AGI-6780 + Olaparib; first compound 8 µM): 0.565
- relative viability (AGI-6780 + Pemetrexed; first compound 0.08 µM): 0.777
- relative viability (AGI-6780 + Pemetrexed; first compound 0.253 µM): 0.781
- relative viability (AGI-6780 + Pemetrexed; first compound 0.8 µM): 0.835
- relative viability (AGI-6780 + Pemetrexed; first compound 2.53 µM): 0.715
- relative viability (AGI-6780 + Pemetrexed; first compound 8 µM): 0.85
- relative viability (AGI-6780 + Foretinib; first compound 0.08 µM): 1.11
- relative viability (AGI-6780 + Foretinib; first compound 0.253 µM): 1.11
- relative viability (AGI-6780 + Foretinib; first compound 0.8 µM): 1.05
- relative viability (AGI-6780 + Foretinib; first compound 2.53 µM): 0.978
- relative viability (AGI-6780 + Foretinib; first compound 8 µM): 1.12
- relative viability (AGI-6780 + Phenformin; first compound 0.08 µM): 0.572
- relative viability (AGI-6780 + Phenformin; first compound 0.253 µM): 0.759
- relative viability (AGI-6780 + Phenformin; first compound 0.8 µM): 0.636
- relative viability (AGI-6780 + Phenformin; first compound 2.53 µM): 0.53
- relative viability (AGI-6780 + Phenformin; first compound 8 µM): 0.793
- relative viability (AGI-6780 + Decitabine; first compound 0.08 µM): 0.727
- relative viability (AGI-6780 + Decitabine; first compound 0.253 µM): 0.733
- relative viability (AGI-6780 + Decitabine; first compound 0.8 µM): 0.732
- relative viability (AGI-6780 + Decitabine; first compound 2.53 µM): 0.65
- relative viability (AGI-6780 + Decitabine; first compound 8 µM): 0.99
- relative viability (AGI-6780 + Dasatinib; first compound 0.08 µM): 0.3
- relative viability (AGI-6780 + Dasatinib; first compound 0.253 µM): 0.369
- relative viability (AGI-6780 + Dasatinib; first compound 0.8 µM): 0.34
- relative viability (AGI-6780 + Dasatinib; first compound 2.53 µM): 0.302
- relative viability (AGI-6780 + Dasatinib; first compound 8 µM): 0.317

Cell Line: NCI-H1623
- relative viability (AGI-6780; 0.08 µM): 0.967
- relative viability (AGI-6780; 0.253 µM): 0.953
- relative viability (AGI-6780; 0.8 µM): 0.977
- relative viability (AGI-6780; 2.53 µM): 0.681
- relative viability (AGI-6780; 8 µM): 0.949
- relative viability (AGI-6780 + Tozasertib; first compound 0.08 µM): 0.47
- relative viability (AGI-6780 + Tozasertib; first compound 0.253 µM): 0.519
- relative viability (AGI-6780 + Tozasertib; first compound 0.8 µM): 0.474
- relative viability (AGI-6780 + Tozasertib; first compound 2.53 µM): 0.391
- relative viability (AGI-6780 + Tozasertib; first compound 8 µM): 0.409
- relative viability (AGI-6780 + Luminespib; first compound 0.08 µM): 0.489
- relative viability (AGI-6780 + Luminespib; first compound 0.253 µM): 0.483
- relative viability (AGI-6780 + Luminespib; first compound 0.8 µM): 0.575
- relative viability (AGI-6780 + Luminespib; first compound 2.53 µM): 0.381
- relative viability (AGI-6780 + Luminespib; first compound 8 µM): 0.463
- relative viability (AGI-6780 + OSI-027; first compound 0.08 µM): 0.537
- relative viability (AGI-6780 + OSI-027; first compound 0.253 µM): 0.453
- relative viability (AGI-6780 + OSI-027; first compound 0.8 µM): 0.454
- relative viability (AGI-6780 + OSI-027; first compound 2.53 µM): 0.374
- relative viability (AGI-6780 + OSI-027; first compound 8 µM): 0.396
- relative viability (AGI-6780 + Foretinib; first compound 0.08 µM): 0.789
- relative viability (AGI-6780 + Foretinib; first compound 0.253 µM): 0.856
- relative viability (AGI-6780 + Foretinib; first compound 0.8 µM): 0.976
- relative viability (AGI-6780 + Foretinib; first compound 2.53 µM): 0.721
- relative viability (AGI-6780 + Foretinib; first compound 8 µM): 0.887
- relative viability (AGI-6780 + Phenformin; first compound 0.08 µM): 0.561
- relative viability (AGI-6780 + Phenformin; first compound 0.253 µM): 0.604
- relative viability (AGI-6780 + Phenformin; first compound 0.8 µM): 0.609
- relative viability (AGI-6780 + Phenformin; first compound 2.53 µM): 0.508
- relative viability (AGI-6780 + Phenformin; first compound 8 µM): 0.518
- relative viability (AGI-6780 + Dasatinib; first compound 0.08 µM): 0.484
- relative viability (AGI-6780 + Dasatinib; first compound 0.253 µM): 0.553
- relative viability (AGI-6780 + Dasatinib; first compound 0.8 µM): 0.619
- relative viability (AGI-6780 + Dasatinib; first compound 2.53 µM): 0.477
- relative viability (AGI-6780 + Dasatinib; first compound 8 µM): 0.489
